According to US7884117B2, “Carbonylamino pyrrolopyrazoles, potent kinase inhibitors” (Pfizer Inc., priority 2005, dated 2011):

target: T1, PAK4 Kinase domain (PAK4 KD) (Homo sapiens, UniProt O96013); assay: PAK4 kinase domain enzymatic assay (PK/LDH-coupled, Ki); assay type: biochemical; conditions: not given
T1 construct: Cloning, expression, and purification of recombinant PAK4 Kinase domain (PAK4 KD); His tag (pET28a(+)/pET24a(+), Ni-NTA purification) (N, cleaved yes); GST (pGST4.5, glutathione column) (N, cleaved yes); made in house; host or cells: E. coli BL21(DE3)
T1 sequence (O96013 321-572 limits assumed): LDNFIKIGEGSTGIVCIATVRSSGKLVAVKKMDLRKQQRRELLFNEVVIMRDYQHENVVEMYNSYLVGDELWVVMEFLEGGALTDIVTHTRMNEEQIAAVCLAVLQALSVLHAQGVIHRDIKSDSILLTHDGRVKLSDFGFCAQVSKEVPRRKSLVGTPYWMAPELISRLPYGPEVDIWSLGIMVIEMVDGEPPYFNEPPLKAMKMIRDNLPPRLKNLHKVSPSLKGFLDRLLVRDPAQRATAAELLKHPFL

| inhibition at 1 µM | SMILES |
| --- | --- |
| 42% | CN(C)C[C@@H](NC(=O)N1Cc2c(NC(=O)c3cnccn3)n[nH]c2C1(C)C)c1ccccc1 [Example 111, (S)-N-(2-(dimethylamino)-1-phenylethyl)-6,6-dimethyl-3-(pyrazine-2-carboxamido)pyrrolo[3,4-c]pyrazole-5 (1H,4H,6H)-carboxamide] |
| 66% | CN(C)C[C@@H](NC(=O)N1Cc2c(NC(=O)C3COc4ccccc4O3)n[nH]c2C1(C)C)c1ccccc1 (stereo partly drawn) [Example 112, 3-(2,3-dihydrobenzo[b][1,4]dioxine-2-carboxamido)-N-((S)-2-(dimethylamino)-1-phenylethyl)-6,6-dimethylpyrrolo[3,4-c]pyrazole-5(1H,4H,6H)-carboxamide] |

same assay, conditions: PAK4 Kinase Domain

| SMILES | Ki |
| --- | --- |
| CC1(C)c2[nH]nc(NC(=O)Cc3ccc(F)cc3)c2CN1C(=O)N[C@@H]1C[C@H]1c1ccccc1 (relative stereo) [Example 70, 3-{[(4-fluorophenyl)acetyl]amino}-6,6-dimethyl-N-[trans-2-phenylcyclopropyl]-4,6-dihydropyrrolo[3,4-c]pyrazole-5(1H)-carboxamide] | 223 nM |
| CCC(C(=O)Nc1n[nH]c2c1CN(C(=O)N[C@@H]1C[C@H]1c1ccccc1)C2(C)C)c1ccccc1 (relative stereo) [Example 107, 6,6-dimethyl-3-[(2-phenylbutanoyl)amino]-N-[trans-2-phenylcyclopropyl]-4,6-dihydropyrrolo[3,4-c]pyrazole-5(1H)-carboxamide] | 260 nM |
| COc1ccc(C(=O)Nc2n[nH]c3c2CN(C(=O)N[C@@H]2C[C@H]2c2ccccc2)C3(C)C)cc1OC (relative stereo) [Example 109, 3-[(3,4-dimethoxybenzoyl)amino]-6,6-dimethyl-N-[trans-2-phenyl-cyclopropyl]-4,6-dihydropyrrolo[3,4-c]pyrazole-5(1H)-carboxamide] | 176 nM |
| COCC(=O)Nc1n[nH]c2c1CN(C(=O)O[C@H](CN(C)C)c1ccccc1)C2(C)C [Example 14, (1S)-2-(dimethylamino)-1-phenylethyl 3-[(methoxyacetyl)amino]-6,6-dimethyl-4,6-dihydropyrrolo[3,4-c]pyrazole-5(1H)-carboxylate] | 356 nM |
| CN(C)C[C@@H](OC(=O)N1Cc2c(NC(=O)c3ccccc3F)n[nH]c2C1(C)C)C1CCCCC1 [Example 33, (1S)-1-cyclohexyl-2-(dimethylamino)ethyl 3-[(2-fluorobenzoyl)amino]-6,6-dimethyl-4,6-dihydropyrrolo[3,4-c]pyrazole-5(1H)-carboxylate] | 220 nM |
| C[C@@H](CN(C)C)OC(=O)N1Cc2c(NC(=O)c3ccc(F)cc3F)n[nH]c2C1(C)C [Example 37, (1S)-2-(dimethylamino)-1-methylethyl 3-[(2,4-difluorobenzoyl)amino]-6,6-dimethyl-4,6-dihydropyrrolo[3,4-c]pyrazole-5(1H)-carboxylate] | 564 nM |
| CN(C)[C@@H](COC(=O)N1Cc2c(NC(=O)c3ccc(F)cc3)n[nH]c2C1(C)C)c1ccccc1 [Example 41, (R)-2-(dimethylamino)-2-phenylethyl 3-[(4-fluorobenzoyl)amino]-6,6-dimethyl-4,6-dihydropyrrolo[3,4-c]pyrazole-5(1H)-carboxylate] | 786 nM |
| CN(C)[C@H](COC(=O)N1Cc2c(NC(=O)c3ccc(F)cc3)n[nH]c2C1(C)C)c1ccccc1 [Example 42, (S)-2-(dimethylamino)-2-phenylethyl 3-[(4-fluorobenzoyl)amino]-6,6-dimethyl-4,6-dihydropyrrolo[3,4-c]pyrazole-5(1H)-carboxylate] | 955 nM |
| CC1(C)c2[nH]nc(NC(=O)c3ccccc3)c2CN1C(=O)NC(CN1CCCC1)c1ccccc1 (stereo not drawn) [Example 60, 3-(benzoylamino)-6,6-dimethyl-N-(1-phenyl-2-pyrrolidin-1-ylethyl)-4,6-dihydropyrrolo[3,4-c]pyrazole-5(1H)-carboxamide] | 267 nM |
| CC1(C)c2[nH]nc(NC(=O)c3ccccc3)c2CN1C(=O)NC1CCCN(Cc2ccccc2)C1 (stereo not drawn) [Example 61, 3-(benzoylamino)-N-(1-benzylpiperidin-3-yl)-6,6-dimethyl-4,6-dihydropyrrolo[3,4-c]pyrazole-5(1H)-carboxamide] | 444 nM |
| CCC(NC(=O)N1Cc2c(NC(=O)c3ccccc3)n[nH]c2C1(C)C)c1ccccc1 (stereo not drawn) [Example 62, 3-(benzoylamino)-6,6-dimethyl-N-(1-phenylpropyl)-4,6-dihydropyrrolo[3,4-c]pyrazole-5(1H)-carboxamide] | 308 nM |
| CN(C)CC(CC(=O)N1Cc2c(NC(=O)c3ccc(F)cc3)n[nH]c2C1(C)C)c1ccccc1 (stereo not drawn) [Example 66, N-{5-[4-(dimethylamino)-3-phenylbutanoyl]-6,6-dimethyl-1,4,5,6-tetrahydropyrrolo[3,4-c]pyrazol-3-yl}-4-fluorobenzamide] | 556 nM |
| CC(C)[C@@H](CN(C)C)OC(=O)N1Cc2c(NC(=O)c3ccccc3)n[nH]c2C1(C)C [Example 74, (1S)-1-[(dimethylamino)methyl]-2-methylpropyl 3-(benzoylamino)-6,6-dimethyl-4,6-dihydropyrrolo[3,4-c]pyrazole-5(1H)-carboxylate] | 475 nM |
| CC(C)C[C@@H](CN(C)C)OC(=O)N1Cc2c(NC(=O)c3ccccc3F)n[nH]c2C1(C)C [Example 78, (1S)-1-[(dimethylamino)methyl]-3-methylbutyl 3-[(2-fluorobenzoyl)amino]-6,6-dimethyl-4,6-dihydropyrrolo[3,4-c]pyrazole-5(1H)-carboxylate] | 284 nM |
| CN(C)C[C@@H](OC(=O)N1Cc2c(NC(=O)C3CCOCC3)n[nH]c2C1(C)C)c1ccccc1 [Example 91, (S)-2-(dimethylamino)-1-phenylethyl 6,6-dimethyl-3-(tetrahydro-2H-pyran-4-carboxamido)pyrrolo[3,4-c]pyrazole-5(1H,4H,6H)-carboxylate] | 286 nM |
| CC1(C)c2[nH]nc(NC(=O)c3ccc(F)cc3)c2CN1C(=O)NC(CN1CCOCC1)c1ccccc1 (stereo not drawn) [Example 102, 3-[(4-fluorobenzoyl)amino]-6,6-dimethyl-N-(2-morpholin-4-yl-1-phenylethyl)-4,6-dihydropyrrolo[3,4-c]pyrazole-5(1H)-carboxamide] | 621 nM |
| CCc1cc(C(=O)Nc2n[nH]c3c2CN(C(=O)N[C@H](CN(C)C)c2ccccc2)C3(C)C)no1 [Example 105, (S)-N-(2-(dimethylamino)-1-phenyl)-3-(5-ethylisoxazole-3-carboxamido)-6,6-dimethylpyrrolo [3,4-c]pyrazole-5(1H,4H,6H)-carboxamide] | 121 nM |
| COc1cc(C(=O)Nc2n[nH]c3c2CN(C(=O)N[C@H](CN(C)C)c2ccccc2)C3(C)C)nc(OC)n1 [Example 106, (S)-3-(2,4-dimethoxypyrimidine-6-carboxamido)-N-(2-(dimethylamino)-1-phenylethyl)-6,6-dimethylpyrrolo[3,4-c]pyrazole-5(1H,4H,6H)-carboxamide] | 412 nM |
| Cc1ccc(Cl)c(C(=O)Nc2n[nH]c3c2CN(C(=O)N[C@H](CN(C)C)c2ccccc2)C3(C)C)c1F [Example 110, (S)-3-(6-chloro-2-fluoro-3-methylbenzamido)-N-(2-(dimethylamino)-1-phenylethyl)-6,6-dimethylpyrrolo[3,4-c]pyrazole-5(1H,4H,6H)-carboxamide] | 81.7 nM |

The remaining lines, values ahead:

| Ki | SMILES |
| --- | --- |
| 96 nM | CC1(C)c2[nH]nc(NC(=O)c3ccccc3)c2CN1C(=O)N[C@@H]1C[C@H]1c1ccccc1 (relative stereo) [Example 58, 3-(benzoylamino)-6,6-dimethyl-N-[trans-2-phenylcyclopropyl]-4,6-dihydropyrrolo[3,4-c]pyrazole-5(1H)-carboxamide] |
| 113 nM | COc1ccc(CC(=O)Nc2n[nH]c3c2CN(C(=O)N[C@@H]2C[C@H]2c2ccccc2)C3(C)C)cc1 (relative stereo) [Example 101, 3-{[(4-methoxyphenyl)acetyl]amino}-6,6-dimethyl-N-[trans-2-phenylcyclopropyl]-4,6-dihydropyrrolo[3,4-c]pyrazole-5(1H)-carboxamide] |
| 448 nM | CC1(C)c2[nH]nc(NC(=O)c3ccccc3)c2CN1C(=O)NC1CCN(Cc2ccccc2)C1 (stereo not drawn) [Example 59, 3-(benzoylamino)-N-(1-benzylpyrrolidin-3-yl)-6,6-dimethyl-4,6-dihydropyrrolo[3,4-c]pyrazole-5(1H)-carboxamide] |
| 178 nM | CC[C@@H](NC(=O)N1Cc2c(NC(=O)c3ccccc3)n[nH]c2C1(C)C)c1ccccc1 [Example 63, 3-(benzoylamino)-6,6-dimethyl-N-[(1R)-1-phenylpropyl]-4,6-dihydropyrrolo[3,4-c]pyrazole-5(1H)-carboxamide] |
| 19.3 nM | CC1(C)c2[nH]nc(NC(=O)c3ccccc3)c2CN1C(=O)N[C@H](CN)c1ccccc1 [Example 64, N-[(1S)-2-amino-1-phenylethyl]-3-(benzoylamino)-6,6-dimethyl-4,6-dihydropyrrolo[3,4-c]pyrazole-5(1H)-carboxamide] |
| 849 nM | CC1(C)c2[nH]nc(NC(=O)C3CCC3)c2CN1C(=O)N[C@@H]1CCN(Cc2ccccc2)C1 [Example 65, N-[(3R)-1-benzylpyrrolidin-3-yl]-3-[(cyclobutylcarbonyl)amino]-6,6-dimethyl-4,6-dihydropyrrolo[3,4-c]pyrazole-5(1H)-carboxamide] |
| 193 nM | CN(C)CC(CC(=O)N1Cc2c(NC(=O)c3ccccc3)n[nH]c2C1(C)C)c1ccc(Cl)cc1 (stereo not drawn) [Example 67, N-{5-[3-(4-chlorophenyl)-4-(dimethylamino)butanoyl]-6,6-dimethyl-1,4,5,6-tetrahydropyrrolo[3,4-c]pyrazol-3-yl}benzamide] |
| 468 nM | CN(C)C[C@H](Cc1ccccc1)OC(=O)N1Cc2c(NC(=O)c3ccc(F)cc3)n[nH]c2C1(C)C [Example 76, (1S)-1-benzyl-2-(dimethylamino)ethyl 3-[(4-fluorobenzoyl)amino]-6,6-dimethyl-4,6-dihydropyrrolo[3,4-c]pyrazole-5(1H)-carboxylate] |
| 512 nM | CN(C)C[C@H](c1ccccc1)N(C)C(=O)N1Cc2c(NC(=O)c3ccccc3)n[nH]c2C1(C)C [Example 103, 3-(benzoylamino)-N-[(1S)-2-(dimethylamino)-1-phenylethyl]-N,6,6-trimethyl-4,6-dihydropyrrolo[3,4-c]pyrazole-5(1H)-carboxamide] |
